# From US10288626B2, “Secreted tumor-associated cytochrome as a blood-based biomarker for cancer” (University of Kentucky Research Foundation, priority 2012, dated 2019)
# Legend:
# NCI-H226 cells = assay: Viability / growth of NCI-H226 squamous cell lung cancer cells treated with AG-205; assay type: cell-based; settings: 96 hours
# Experimental: FIG. 2 depicts Pgrmc1 expression and biological activity in SCLC cell lines. (A) Pgrmc1 expression was tested in a group of 3 commonly used SCLC cell lines (upper panel), and ku70 was used as a loading control (lower panel). […] Cells were maintained in medium lacking serum for the indicated time and in all cases, viability was determined by cell counting. (C) Pgrmc1 expression was inhibited by siRNA transfection (upper panel, lane 2) relative to the control transfection (upper panel, lane 1). […] Cells were maintained in media lacking serum for the indicated times. (E) The expression of the exogenous Pgrmc1-hbd protein was detected by western blot in NCI-H226 cells infected with a control adenovirus (lane 1), encoding LacZ, or the Pgrmc1-hbd expression virus (lane 2). The top panel was probed with an antibody to the HA epitope tag sequence, with which Pgrmc1-hbd is fused. (F) NCI-H226 cells were treated with increasing doses of the Pgrmc1 inhibitor AG-205 and maintained with serum (dashed line) or without serum (solid line) for 96 hours.
# Tissue culture: […], SK-MES-1 and SW900 squamous cell lung cancer cells and A549 lung adenocarcinoma cells were obtained from the American type culture collection (ATCC) and cultured according to their instructions. The identities of the cell lines were confirmed by Genetica DNA Laboratories (Cincinnati, Ohio). […]
# Conditioned media from control and Pgrmc1 knockdown A549 NSCLC cells were generated by incubating cells in serum-free DMEM media for 24 hours. […] For fluorescent activated cell sorting (FACS), cells were stained with propidium iodide and analyzed as described (Mallory et al., Mol Pharmacol 2005, 68: 1747-56). […] For viability assays, cells were plated in 24 well dishes, washed with PBS and harvested by trypsinization and counted using a hemocytometer. Where indicated, cells were plated in 96 well dishes, and viability was measured by 3-(4,5-Dimethylthiazol-2-yl)-2,5-diphenyltetrazolium bromide (MTT) assay, as described (Hand and Craven. J Cell Biochem 2003, 90:534-47).
# tumor cells = settings: cited from earlier work
# EGFR = settings: cited from earlier work
smiles,measurement,setting,value
Cc1ccc2c(c1)[C@H]1CN(C)CC[C@H]1N2C(=O)CSc1nnnn1-c1ccc(Cl)cc1 [AG-205],IC50,"NCI-H226 cells; absence of serum, read-out: IC50, growth inhibition of NCI-H226 cells",9 µM
same,effect on viability of NCI-H226 cells,"NCI-H226 cells; absence of serum, increasing doses",loss of viability
same,activity on growth of NCI-H226 cells,NCI-H226 cells; presence of serum,minimal activity
same,effect on growth in tumor cells,tumor cells,inhibits growth
same,effect on EGFR levels,EGFR,decreases EGFR levels
